The subject of experiment [1] is MV4-11. Put plainly: Induction of apoptosis in human MV4-11 cells assessed as healthy cells at 4 uM measured after 6 hrs by annexin V-FITC/PI staining based FACS assay (reference value: 63.50%). It counts as functional. Background: In flow cytometry, cells or beads pass a laser one at a time.
The next experiment addresses Histone deacetylase 5 (Homo sapiens, UniProt Q9UQL6). The experiment can be described thus: Inhibition of HDAC5 (unknown origin) using 6-carboxyfluorescein peptide as substrate preincubated with compound for 6 hrs followed by substrate addition by electrophoretic mobility shift assay.
Experiment [2] deals with T1, Histone deacetylase 1 (Homo sapiens, UniProt Q13547). The experiment can be described thus: Inhibition of HDAC1 (unknown origin) using 6-carboxyfluorescein peptide as substrate preincubated with compound followed by substrate addition by electrophoretic mobility shift assay.
T1 sequence (Q13547 whole entry): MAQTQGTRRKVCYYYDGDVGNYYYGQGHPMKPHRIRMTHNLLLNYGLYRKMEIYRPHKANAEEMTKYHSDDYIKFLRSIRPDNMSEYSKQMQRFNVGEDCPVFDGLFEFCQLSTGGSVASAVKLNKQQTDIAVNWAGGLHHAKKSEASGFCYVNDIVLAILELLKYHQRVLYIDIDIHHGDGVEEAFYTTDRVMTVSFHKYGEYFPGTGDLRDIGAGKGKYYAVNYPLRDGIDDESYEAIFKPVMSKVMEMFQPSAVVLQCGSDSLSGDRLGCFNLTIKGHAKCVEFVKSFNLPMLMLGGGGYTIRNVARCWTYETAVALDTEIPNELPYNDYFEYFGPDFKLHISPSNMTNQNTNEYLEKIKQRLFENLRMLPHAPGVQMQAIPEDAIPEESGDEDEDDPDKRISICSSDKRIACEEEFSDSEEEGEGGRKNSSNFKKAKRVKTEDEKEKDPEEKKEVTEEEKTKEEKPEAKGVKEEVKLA
A further experiment has as its target Histone deacetylase 9 (Homo sapiens, UniProt Q9UKV0). Put plainly: Inhibition of HDAC9 (unknown origin) using 6-carboxyfluorescein peptide as substrate preincubated with compound for 6 hrs followed by substrate addition by electrophoretic mobility shift assay. In general terms: In EMSA bound probe runs differently from free probe, usually more slowly.
A further experiment has as its target T2, Histone deacetylase 8 (Homo sapiens, UniProt Q9BY41).
T2 sequence (Q9BY41 whole entry): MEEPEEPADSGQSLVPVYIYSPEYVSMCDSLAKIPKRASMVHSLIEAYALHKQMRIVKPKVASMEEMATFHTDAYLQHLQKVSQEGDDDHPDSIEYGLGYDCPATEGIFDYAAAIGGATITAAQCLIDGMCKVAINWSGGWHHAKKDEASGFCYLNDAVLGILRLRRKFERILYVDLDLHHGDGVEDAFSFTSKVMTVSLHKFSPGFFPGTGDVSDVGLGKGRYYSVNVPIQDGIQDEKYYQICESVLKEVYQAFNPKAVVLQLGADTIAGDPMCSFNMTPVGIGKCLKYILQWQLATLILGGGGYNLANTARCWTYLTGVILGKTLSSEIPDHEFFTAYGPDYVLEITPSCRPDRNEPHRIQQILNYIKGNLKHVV
The experiment can be described thus: Inhibition of full length recombinant human HDAC8 expressed in Sf9 cells using 6-carboxyfluorescein peptide as substrate preincubated with compound followed by substrate addition and measured after 3 hrs by electrophoretic mobility shift assay.

For another experiment, the target named is Histone deacetylase 2 (Homo sapiens, UniProt Q92769). The experiment can be described thus: Inhibition of HDAC2 (unknown origin) using 6-carboxyfluorescein peptide as substrate preincubated with compound for 6 hrs followed by substrate addition by electrophoretic mobility shift assay.
Histone deacetylase 2, sequence (Q92769 whole entry): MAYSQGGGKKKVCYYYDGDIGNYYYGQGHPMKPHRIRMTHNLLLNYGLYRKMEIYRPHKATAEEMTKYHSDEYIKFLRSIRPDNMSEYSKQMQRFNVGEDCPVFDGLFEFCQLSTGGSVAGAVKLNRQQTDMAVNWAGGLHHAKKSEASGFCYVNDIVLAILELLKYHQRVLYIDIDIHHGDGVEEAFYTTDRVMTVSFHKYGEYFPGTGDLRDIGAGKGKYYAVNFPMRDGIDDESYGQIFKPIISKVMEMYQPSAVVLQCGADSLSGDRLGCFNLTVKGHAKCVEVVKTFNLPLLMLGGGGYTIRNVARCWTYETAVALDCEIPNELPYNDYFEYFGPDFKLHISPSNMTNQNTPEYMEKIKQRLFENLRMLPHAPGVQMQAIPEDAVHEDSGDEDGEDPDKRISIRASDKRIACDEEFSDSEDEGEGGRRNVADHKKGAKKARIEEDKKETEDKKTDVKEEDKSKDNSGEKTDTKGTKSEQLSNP
Experiment [3] has as its target T3, Polyamine deacetylase HDAC10 (Homo sapiens, UniProt Q969S8).
T3 sequence (Q969S8 whole entry): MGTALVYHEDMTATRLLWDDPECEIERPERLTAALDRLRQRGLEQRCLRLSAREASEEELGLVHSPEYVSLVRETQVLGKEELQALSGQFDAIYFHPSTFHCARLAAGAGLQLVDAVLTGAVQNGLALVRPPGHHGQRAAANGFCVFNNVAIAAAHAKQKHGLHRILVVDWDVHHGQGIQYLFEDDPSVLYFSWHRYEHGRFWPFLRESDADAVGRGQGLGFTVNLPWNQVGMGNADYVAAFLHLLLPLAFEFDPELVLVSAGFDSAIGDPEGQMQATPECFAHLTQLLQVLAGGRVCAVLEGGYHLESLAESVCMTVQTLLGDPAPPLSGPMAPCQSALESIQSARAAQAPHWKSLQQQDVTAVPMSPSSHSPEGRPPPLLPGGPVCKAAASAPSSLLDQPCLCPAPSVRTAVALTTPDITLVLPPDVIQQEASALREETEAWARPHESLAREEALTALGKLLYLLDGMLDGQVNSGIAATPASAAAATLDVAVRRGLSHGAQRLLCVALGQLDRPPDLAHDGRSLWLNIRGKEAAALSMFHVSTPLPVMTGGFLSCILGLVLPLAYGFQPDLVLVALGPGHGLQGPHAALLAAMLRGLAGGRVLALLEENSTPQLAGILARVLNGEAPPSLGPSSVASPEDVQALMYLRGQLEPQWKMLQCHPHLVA
The experiment can be described thus: Inhibition of HDAC10 (unknown origin) using 6-carboxyfluorescein peptide as substrate preincubated with compound for 6 hrs followed by substrate addition by electrophoretic mobility shift assay.

Experiment [4] concerns the target T4, Protein deacetylase HDAC6 (Homo sapiens, UniProt Q9UBN7).
T4 sequence (Q9UBN7 whole entry): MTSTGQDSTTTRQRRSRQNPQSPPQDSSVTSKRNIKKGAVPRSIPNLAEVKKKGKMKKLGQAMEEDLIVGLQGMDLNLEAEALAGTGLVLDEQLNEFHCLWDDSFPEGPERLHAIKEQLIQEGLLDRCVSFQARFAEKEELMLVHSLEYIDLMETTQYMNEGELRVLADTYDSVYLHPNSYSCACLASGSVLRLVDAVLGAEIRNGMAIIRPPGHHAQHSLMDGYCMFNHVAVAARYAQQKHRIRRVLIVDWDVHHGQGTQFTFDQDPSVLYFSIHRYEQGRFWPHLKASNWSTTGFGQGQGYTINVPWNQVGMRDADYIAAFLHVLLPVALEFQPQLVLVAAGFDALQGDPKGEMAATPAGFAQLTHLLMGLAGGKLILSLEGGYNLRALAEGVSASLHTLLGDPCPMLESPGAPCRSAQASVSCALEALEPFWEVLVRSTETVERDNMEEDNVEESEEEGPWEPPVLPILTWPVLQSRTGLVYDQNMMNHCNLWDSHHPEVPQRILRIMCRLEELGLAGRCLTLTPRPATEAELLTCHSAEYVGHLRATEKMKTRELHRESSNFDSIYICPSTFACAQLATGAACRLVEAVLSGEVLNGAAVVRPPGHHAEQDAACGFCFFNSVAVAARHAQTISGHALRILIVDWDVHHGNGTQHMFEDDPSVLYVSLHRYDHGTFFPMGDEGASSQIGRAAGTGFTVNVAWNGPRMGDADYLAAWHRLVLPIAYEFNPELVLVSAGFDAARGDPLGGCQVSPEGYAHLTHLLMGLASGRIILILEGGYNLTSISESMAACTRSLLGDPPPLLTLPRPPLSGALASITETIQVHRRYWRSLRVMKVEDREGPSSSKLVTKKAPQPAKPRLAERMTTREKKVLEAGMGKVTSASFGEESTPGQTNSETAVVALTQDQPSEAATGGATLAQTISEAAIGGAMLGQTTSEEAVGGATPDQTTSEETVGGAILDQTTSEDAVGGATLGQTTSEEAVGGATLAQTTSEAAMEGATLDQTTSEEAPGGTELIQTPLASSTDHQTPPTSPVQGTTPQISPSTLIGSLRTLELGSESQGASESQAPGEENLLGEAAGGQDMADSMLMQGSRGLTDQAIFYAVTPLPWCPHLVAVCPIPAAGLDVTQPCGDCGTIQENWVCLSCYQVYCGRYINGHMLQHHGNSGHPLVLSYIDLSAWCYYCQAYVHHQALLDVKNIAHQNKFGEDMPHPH
The experiment can be described thus: Inhibition of full length recombinant human HDAC6 expressed in Sf9 cells using 6-carboxyfluorescein peptide as substrate preincubated with compound for 6 hrs followed by substrate addition and measured after 5 hrs by electrophoretic mobility shift assay.

Experiment [5] deals with T1, Histone deacetylase 1. The experiment can be described thus: Inhibition of HDAC1 (unknown origin) using 6-carboxyfluorescein peptide as substrate preincubated with compound for 6 hrs followed by substrate addition by electrophoretic mobility shift assay.
Experiment [6] relates to MV4-11. Put plainly: Induction of apoptosis in human MV4-11 cells assessed as healthy cells at 1 uM measured after 6 hrs by annexin V-FITC/PI staining based FACS assay (reference value: 63.50%). It counts as functional.

The values below come from ChEMBL document CHEMBL5375983, “Discovery of YSR734: A Covalent HDAC Inhibitor with Cellular Activity in Acute Myeloid Leukemia and Duchenne Muscular Dystrophy” (J Med Chem, 2023).

Histone deacetylase 5, sequence (Q9UQL6 whole entry): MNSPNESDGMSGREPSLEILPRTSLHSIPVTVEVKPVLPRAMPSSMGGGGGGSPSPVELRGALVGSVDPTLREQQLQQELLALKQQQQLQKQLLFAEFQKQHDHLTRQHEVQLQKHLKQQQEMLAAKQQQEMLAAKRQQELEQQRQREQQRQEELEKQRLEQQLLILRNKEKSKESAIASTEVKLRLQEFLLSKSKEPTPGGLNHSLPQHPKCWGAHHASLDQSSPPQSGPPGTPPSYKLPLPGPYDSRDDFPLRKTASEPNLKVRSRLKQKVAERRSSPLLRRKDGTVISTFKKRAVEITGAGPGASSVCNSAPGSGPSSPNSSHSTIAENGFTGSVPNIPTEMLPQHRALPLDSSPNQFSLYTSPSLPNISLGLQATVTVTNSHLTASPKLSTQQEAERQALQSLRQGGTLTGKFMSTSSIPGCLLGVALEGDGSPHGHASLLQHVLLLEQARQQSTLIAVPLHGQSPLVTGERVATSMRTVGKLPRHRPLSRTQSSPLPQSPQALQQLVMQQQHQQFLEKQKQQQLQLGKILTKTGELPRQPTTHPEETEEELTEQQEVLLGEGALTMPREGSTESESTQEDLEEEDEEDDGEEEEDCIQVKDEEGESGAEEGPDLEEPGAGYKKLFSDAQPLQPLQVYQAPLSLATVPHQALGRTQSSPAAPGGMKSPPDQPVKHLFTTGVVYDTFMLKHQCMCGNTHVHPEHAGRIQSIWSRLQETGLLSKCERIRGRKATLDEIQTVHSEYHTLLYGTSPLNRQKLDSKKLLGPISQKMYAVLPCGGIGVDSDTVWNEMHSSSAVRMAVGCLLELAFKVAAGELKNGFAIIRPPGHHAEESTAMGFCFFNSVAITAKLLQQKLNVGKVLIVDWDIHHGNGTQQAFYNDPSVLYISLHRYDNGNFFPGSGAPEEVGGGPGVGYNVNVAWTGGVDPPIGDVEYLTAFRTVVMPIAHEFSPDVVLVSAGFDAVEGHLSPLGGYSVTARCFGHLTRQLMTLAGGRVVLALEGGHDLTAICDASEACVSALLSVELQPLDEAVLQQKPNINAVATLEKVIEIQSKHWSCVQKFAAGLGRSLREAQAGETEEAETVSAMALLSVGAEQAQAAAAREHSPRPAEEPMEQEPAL
Histone deacetylase 9, sequence (Q9UKV0 whole entry): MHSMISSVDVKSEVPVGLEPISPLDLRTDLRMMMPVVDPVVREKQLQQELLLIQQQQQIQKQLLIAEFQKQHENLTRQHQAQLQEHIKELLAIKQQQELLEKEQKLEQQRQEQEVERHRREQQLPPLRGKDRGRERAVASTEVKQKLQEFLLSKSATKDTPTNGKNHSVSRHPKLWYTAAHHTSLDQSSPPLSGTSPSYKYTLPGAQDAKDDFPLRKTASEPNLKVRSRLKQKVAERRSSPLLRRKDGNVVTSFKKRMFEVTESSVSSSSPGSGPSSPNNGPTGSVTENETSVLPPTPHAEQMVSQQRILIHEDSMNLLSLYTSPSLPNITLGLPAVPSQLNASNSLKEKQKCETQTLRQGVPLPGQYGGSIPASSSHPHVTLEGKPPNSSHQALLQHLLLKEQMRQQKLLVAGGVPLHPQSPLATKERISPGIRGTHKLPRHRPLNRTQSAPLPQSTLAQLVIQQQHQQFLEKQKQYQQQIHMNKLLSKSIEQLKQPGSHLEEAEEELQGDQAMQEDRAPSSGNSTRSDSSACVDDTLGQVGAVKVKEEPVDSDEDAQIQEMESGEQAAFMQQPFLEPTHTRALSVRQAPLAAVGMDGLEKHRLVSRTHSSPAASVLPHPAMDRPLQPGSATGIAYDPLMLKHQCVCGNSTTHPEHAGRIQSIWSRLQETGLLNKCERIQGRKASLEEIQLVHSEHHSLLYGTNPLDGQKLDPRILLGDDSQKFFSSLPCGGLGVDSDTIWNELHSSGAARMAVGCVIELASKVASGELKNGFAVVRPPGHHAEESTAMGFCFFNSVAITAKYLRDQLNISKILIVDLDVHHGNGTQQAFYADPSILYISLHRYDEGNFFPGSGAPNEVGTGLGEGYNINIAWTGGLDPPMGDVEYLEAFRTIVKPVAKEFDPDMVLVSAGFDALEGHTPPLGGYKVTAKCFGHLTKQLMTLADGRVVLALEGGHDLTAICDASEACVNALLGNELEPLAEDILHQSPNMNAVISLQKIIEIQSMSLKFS

For `Nc1ccccc1NC(=O)c1ccc(CNC(=O)OC2CCN(S(=O)(=O)c3c(F)c(F)c(F)c(F)c3F)CC2)cc1`, the figures for the Activity in the experiment on MV4-11 [1] and in the experiment on MV4-11 [6] were 4.57% and 23.54%, respectively. In addition, the IC50 at Histone deacetylase 5 was above 10000 nM; at Histone deacetylase 1 [2], 242 nM; at Histone deacetylase 9, above 10000 nM; at Histone deacetylase 8, above 10000 nM; on Histone deacetylase 2, 154 nM; in experiment [3], above 10000 nM. Further, the values for the half-maximal inhibitory concentration (IC50) (in [4]; on Histone deacetylase 1 [5]) were above 10000 nM and 109 nM, respectively.

The IC50 is the concentration that inhibits the measured activity by half.
